{"source": "patent US20240050579A1", "about": "“HYALURONAN-NIMESULIDE CONJUGATE FOR TREATING LOCALLY ADVANCED OR METASTATIC TUMORS” (Aihol Corporation, priority 2022, published 2024)", "format_in_all_cases": "in vivo", "key": {"[1]": {"test_system": "CT26 mouse colon carcinoma", "test": "Tumor volume / TGI in CT26 mice", "conditions": "5-FU alone 50 mg/kg IV QW", "protocol": "Immunocompetent, female Balb/C […] mice (ages 6-8 weeks) were ordered and received from National Laboratory Animal Center. Animals were housed on irradiated corncob bedding in micro-isolator caging. Fluorescent lighting was provided on a 12-hour cycle under temperature (20-23° C.) and humidity control (30-70%). Rodent feed and autoclaved acidified water (pH 2.5-3) were provided ad libitum.\nCT26 is an N-nitroso-N-methylurethane-(NNMU) induced, undifferentiated mouse colon carcinoma cell line. CT26 carcinoma cells were grown in McCoy's 5a culture medium supplemented with 10% (v/v) FBS and 1% PSN antibiotic mixture. The cells were maintained in an incubator with a humidified environment of 5% CO^2 at 37° C. in a 175 cm 2 flask and subcultured 2-3 times each week. On the study day, CT26 cells were thawed and prepared for inoculation into mice. Cells were washed in PBS, counted, and resuspended in cold PBS at concentrations of 2×10^6 viable cells/0.1 ml. […]\nAnimals were monitored weekly for palpable tumors or any changes in appearance or behavior. Once tumors were palpable, they were measured using calipers. Tumor volume was calculated using the following equation ½(4π/3)(L/2)(W/2)H, where L is the length, W is the width, and H is the height of the tumor. […] Data were expressed as mean±SEM."}, "[2]": {"test_system": "HT-29 human colon adenocarcinoma cells", "test": "Tumor volume / TGI in HT-29 tumor-bearing mice", "conditions": "for TGI (tumor growth inhibition rate): HT-29 mice, 5-FU 50 mg/kg QW", "protocol": "(§1) Immunocompromised, Nu/Nu, Female athymic nu/nu (nude) mice (ages 5-6 weeks, LASCO) were purchased from LASCO. Animals were housed in individual HEPA ventilated cages (Innocage® IVC, Innovive USA) housed for stabilization. Fluorescent lighting was provided on a 12-hour cycle under temperature (20-23° C.) and humidity control (30-70%). Rodent feed and water were provided ad libitum.\n(§2) HT-29 human colon adenocarcinoma cells (2×10^7) in PBS buffer were implanted subcutaneously on the right flank of each mouse. Once tumors were detectable, palpable and measurable, the primary tumor volumes were measured and recorded every 3 or 4 days. Tumor volume was calculated as ½(4π/3)(L/2)(W/2)H, where L is the length, W is the width, and H is the height of the tumor. […] Subjects were terminated from the study when the tumor volume reached approximately 1500 mm^3 or the body weight loss was greater than 20% (IACUC protocol limits)."}, "[3]": {"test_system": "MDA-MB-231 human breast cancer cells", "test": "Tumor volume in MDA-MB-231 tumor-bearing mice", "conditions": "5-FU alone 30 mg/kg TIW vs vehicle control", "protocol": "as §1\nas §2, with “MDA-MB-231” for “HT-29”, “breast cancer Cells (5×10^6)” for “colon adenocarcinoma cells (2×10^7)”, “½×L×W^2,” for “½(4π/3)(L/2)(W/2)H,”, “length and” for “length,”, “width.” for “width, and H is the height of the tumor.”"}}, "data": [{"smiles": "O=c1[nH]cc(F)c(=O)[nH]1", "note": "[5-FU, 5-fluorouracil]", "values": [{"measurement": "TGI rate", "setting": "[1]", "value": "approximately 70%"}, {"measurement": "TGI (tumor growth inhibition rate)", "setting": "[2]; D21", "value": "~60", "unit": "%"}, {"measurement": "TGI (tumor growth inhibition rate)", "setting": "[2]; D28", "value": "~45", "unit": "%"}, {"measurement": "tumor growth", "setting": "[2]; HT-29 tumor-bearing mice, 5-FU alone 50 mg/kg QW vs vehicle control", "value": "did not reduce tumor growth"}, {"measurement": "tumor growth", "setting": "[3]", "value": "did reduce tumor growth"}]}]}
